Assay results published in patent US4966900A, “Cephalosporin β-lactam compound and medicinal composition” (priority 1986, dated 1990).
Counter-ions that a name gives are not always drawn.

Experiments:
Test in all cases: MIC
E. cloacae 1Y247 = format: cell-based; details: Enterobacter cloacae, Table 6, read-out: MIC
Procedure: (§1) The minimum inhibition concentrations (MIC) of the compounds obtained in the respective examples described above were measured according to the standard method of Japanese Chemotherapy Association.

S. aureus IAA498 = format: cell-based; details: Staphylococcus aureus, Table 5
Procedure: as §1

S. aureus Smith = details: Staphylococcus aureus, Table 5
E. coli ML4707 = details: Escherichia coli, ML4707, E. coli ML4707; Table 5
E. coli GN5482 = details: Escherichia coli, GN5482, E. coli GN5482; Table 5
K. pneumoniae 4at521 = details: Klebsiella pneumoniae, 4AT521
E. colacae GN7471 = details: Table 5
E. cloacae 908RN = details: Enterobacter cloacae
C. freundii GN7391 = details: Citrobacter freundii, GN7391, C. freundii GN7391
S. marcescens GN10857 = details: Serratia marcescens, GN10857, S. marcescens GN10857; Table 5
P. vulgaris GN7919 = details: Proteus vulgaris, GN7919
P. aeruginosa GN10362 = details: Pseudomonas aeruginosa, GN10362
P. aeruginosa 4au542 = details: Pseudomonas aeruginosa, 4AU542, P. aeruginosa 4au542; Table 5
P. aeruginosa 5D58-1 = details: Pseudomonas aeruginosa, 5D581, P. aeruginosa 5D58-1; Table 5
P. cepacia OF189 = details: Burkholderia cepacia, OF189, P. cepacia OF189; Table 5
P. maltophilia OF247 = details: Stenotrophomonas maltophilia, Table 5
E. cloacae 5D52-2 = details: Enterobacter cloacae, 5D522
E. cloacae 5D63-2 = details: Enterobacter cloacae, 5D632
E. cloacae 1V25 = details: Enterobacter cloacae
C. freundii 5D60-1 = details: Citrobacter freundii, 5D601
C. freundii 1R523 = details: Citrobacter freundii, 1R523
C. freundii 1R524 = details: Citrobacter freundii, 1R524
C. freundii 1R526 = details: Citrobacter freundii, 1R526
C. freundii 1R527 = details: Citrobacter freundii, 1R527
C. freundii 1U589 = details: Citrobacter freundii, 1U589
C. freundii 1U692 = details: Citrobacter freundii, 1U692

Structure (SMILES)	MIC (E. cloacae 1Y247) [µg/mL]	MIC (S. aureus IAA498) [µg/mL]	MIC (S. aureus Smith) [µg/mL]	MIC (E. coli ML4707) [µg/mL]	MIC (E. coli GN5482) [µg/mL]	MIC (K. pneumoniae 4at521) [µg/mL]	MIC (E. colacae GN7471) [µg/mL]	MIC (E. cloacae 908RN; E. cloacae 908RN, Table 6) [µg/mL]	MIC (E. cloacae 908RN; E. colacae 908RN, Table 5) [µg/mL]	MIC (C. freundii GN7391; Table 5) [µg/mL]	MIC (C. freundii GN7391; Table 6) [µg/mL]	MIC (S. marcescens GN10857) [µg/mL]	MIC (P. vulgaris GN7919) [µg/mL]	MIC (P. aeruginosa GN10362) [µg/mL]	MIC (P. aeruginosa 4au542) [µg/mL]	MIC (P. aeruginosa 5D58-1) [µg/mL]	MIC (P. cepacia OF189) [µg/mL]	MIC (P. maltophilia OF247) [µg/mL]	MIC (E. cloacae 5D52-2) [µg/mL]	MIC (E. cloacae 5D63-2) [µg/mL]	also measured
Cc1nc2c(C(=O)O)cnn2c(SCC2=C(C(=O)O)N3C(=O)C(NC(=O)C(=NOC(C)(C)C(=O)NNC(=O)c4ccc(O)c(O)c4)c4csc(N)n4)C3SC2)c1C (stereo not drawn) [Example 27, 7-{2-[2-Amino-1,3-thiazol-4-yl]-2-[1-(3-(3,4-dihydroxybenzoyl)carbazoyl)-1-methylethoxyimino]acetamide}-3-[(3-carboxy-5,6-dimethylpyrazolo[1,5-a]pyrimidin-7-yl)thiomethyl]-3-cephem-4-carboxylic acid.hydrochloride]	0.78	50	25	0.012	< 0.006	< 0.006	0.78	0.78	0.39	0.78	0.78	0.1	0.39	0.05	0.2	0.2	0.012	0.2	0.1	0.2	MIC (E. cloacae 1V25): 0.39 µg/mL; MIC (C. freundii 5D60-1): 6.25 µg/mL; MIC (C. freundii 1R523): 0.2 µg/mL; MIC (C. freundii 1R524): 0.1 µg/mL; MIC (C. freundii 1R526): 0.1 µg/mL; MIC (C. freundii 1R527): 0.1 µg/mL; MIC (C. freundii 1U589): 0.39 µg/mL; MIC (C. freundii 1U692): 0.2 µg/mL
Cc1cc(SCC2=C(C(=O)O)N3C(=O)C(NC(=O)C(=NOC(C)(C)C(=O)NNC(=O)c4ccc(O)c(O)c4)c4csc(N)n4)C3SC2)n2nnnc2n1 (stereo not drawn) [Example 29, 7-{2-[2-amino-1,3-thiazol-4-yl]-2-[1-(3-(3,4-dihydroxybenzoyl)carbazoyl)-1-methylethoxyimino]acetamide}-3-[(5-methyltetrazolo[1,5-a]pyrimidin-7-yl)thiomethyl]-3-cephem-4-carboxylic acid.hydrochloride]	0.78	3.13	1.56	< 0.006	0.025	0.012	1.56	3.13	6.25	6.25	0.012	0.39	6.25	0.39	0.78	0.39	< 0.006	0.2	0.78	0.78	MIC (E. cloacae 1V25): 3.13 µg/mL; MIC (C. freundii 5D60-1): 0.39 µg/mL; MIC (C. freundii 1R523): 0.2 µg/mL; MIC (C. freundii 1R524): 0.78 µg/mL; MIC (C. freundii 1R526): 0.2 µg/mL; MIC (C. freundii 1R527): 0.78 µg/mL; MIC (C. freundii 1U589): 0.78 µg/mL; MIC (C. freundii 1U692): 12.5 µg/mL
CC(C)(ON=C(C(=O)NC1C(=O)N2C(C(=O)O)=C(CSc3c4c(nc5nc(C(=O)O)nn35)CCC4)CSC12)c1csc(N)n1)C(=O)NNC(=O)c1ccc(O)c(O)c1 (stereo not drawn) [Example 33, 7-{2-[2-amino-1,3-thiazol-4-yl]-2-[1-(3-(3,4-dihydroxybenzoyl)carbazoyl)-1-methylethoxyimino]acetamide}-3-[(2-carboxy-6,7-dihydro-5H-cyclopenta[f]-s-triazolo[1,5-a]pyrimidin-8-yl)thiomethyl]-3-cephem-4-carboxylic acid.hydrochloride]	1.56	25	25	< 0.006	< 0.006	< 0.006	0.39	0.2	0.2	0.39	0.78	0.05	0.2	0.05	0.2	0.2	< 0.006	0.1	0.1	0.1	MIC (E. cloacae 1V25): 1.56 µg/mL; MIC (C. freundii 5D60-1): 0.2 µg/mL; MIC (C. freundii 1R523): 0.05 µg/mL; MIC (C. freundii 1R524): 0.025 µg/mL; MIC (C. freundii 1R526): 0.025 µg/mL; MIC (C. freundii 1R527): 0.025 µg/mL; MIC (C. freundii 1U589): 0.05 µg/mL; MIC (C. freundii 1U692): 0.05 µg/mL
